# Patent US11214835B1, “Methods and compositions for diagnosis and management of neurodegerative diseases” (UNIVERSITY OF SOUTH FLORIDA, priority 2017, dated 2022)
# How the values were obtained:
# [1] = test system: GAS5; experiment: Hippocampal GAS5 levels after intranasal administration to C57BL/6 mice; format: in vivo, mouse; settings: 10 nM in 10 μl, about 48 h
# Excerpt: Separately, NPG567 or other compounds can be administered by intranasal delivery (APP/PS1 beginning at either 6 months of age (preventive) or 12 months of age (therapeutic); dose repeated alternate days; Tg4510 beginning at either 3 months of age (preventive) or 8 months of age (therapeutic); alternate days. See FIG. 25B for a schematic of the experimental protocol. The treatment efficacy for the two modes of delivery at timeframes as shown in FIGS. 25A and 25B and described herein. Intranasal delivery is a noninvasive method that bypasses the blood-brain barrier and delivers the drug to the brain and the spinal cord, thereby avoiding any systemic side effects. […] Brain tissue was harvested after about 48 h.
# [2] = test system: GAS5; experiment: GAS5 stabilization in HT22 cells over-expressing UPF1, SYBR Green qPCR; format: cell-based, mouse; settings: pre-treated 10 nM for 1 hour, then UPF1 transfection for 24 hours
# Method: As the compound(s) were designed to bind to GAS5 such that it would disrupt binding to UPF1, the compound(s) ability to bind to GAS5 was examined. RNA-EMSA (REMSA) was performed as previously described. Briefly, GAS5 was cloned in TOPO vector which has the T7 promoter. In vitro transcription assay was performed with biotin-label using RiboScribe kit using T7 RNA polymerase at 37° C. for 2 h in the presence of nucleotides, RNase inhibitor, and 5× transcription buffer. 0.1 nM of transcribed, biotin-labeled GAS5 was incubated with 10 nM NPG567 in presence of 10U yeast tRNA and 10 units of RNase inhibitor in a final volume of 10 μl of RNA shift buffer for 20 min at room temperature, detected using Biotin Chromogenic Detection kit (ThermoFisher). […] Next, it was evaluated whether NPG567 could stabilize GAS5 in HT22 cells over-expressing UPF1 (from Addgene). UPF1 was transiently transfected for 24 h (UPF oe) or pre-treated with NPG567 (10 nM) for 1 hour followed by transfection of UPF1 for 24 hours. GAS5 levels were measured using SYBR Green qPCR. […]
# Methods in brief: Cell culture: Immortalized clonal mouse hippocampal cell line (HT22) (obtained from Salk Institute) and cultured in DMEM+10% FBS. […] The cells are checked for viability and counted and plated into T-25 flasks in neurobasal media with B27 supplement. […]
smiles,measurement,setting,value
NCCCC[C@H]1CN(C(=O)CCc2ccccc2)CC(=O)N[C@@H](CCC(=O)O)CN(CC(N)=O)C(=O)CCSCc2ccc(cc2)C(=O)N[C@@H](CCC(=O)O)CN(C(=O)CCC(=O)O)CC(=O)N[C@@H](CCCCN)CN(C(=O)CCCN)CC(=O)N1 [NPG567],GAS5 levels in the hippocampus,[1],increased GAS5 levels in the hippocampus
same,GAS5 levels with UPF1 over-expression,[2],increases GAS5 levels
